Among the test systems are NCI-H460 lung; OVCAR-5 ovarian; U251 CNS; SF-539 CNS; SNB-75 CNS; NCI/ADR-RES ovarian; HOP-62 NSCLC; BT-549 breast; SK-MEL-2 melanoma; HCT-116 colon.
Holding throughout (test): DTP human tumour cell line panel, 48 h

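Each compound was tested at five concentrations against cells in 96-well plates for 48 hours. Abbreviation: GI50, concentration required for 50% inhibition of growth. TGI marks complete inhibition of growth.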

Drawing on PubChem BioAssay (NCI), this text covers GI50 and TGI for eight molecules.

For `C/C(=C\C1=C(Cl)C(=O)c2ccccc2C1=O)C(=O)O`, the GI50 in the assay with NCI-H460 lung was 21.9 µM; in the assay on OVCAR-5 ovarian, 22.5 µM; in the assay on U251 CNS, 15.8 µM; in the assay on SF-539 CNS, 17.7 µM; with SNB-75 CNS, 21.5 µM; with NCI/ADR-RES ovarian, 21.1 µM. Moreover, the GI50 in the assay on HOP-62 NSCLC is 18.8 µM; with BT-549 breast, 14.2 µM; with SK-MEL-2 melanoma it was 18.1 µM; in the assay on HCT-116 colon, 28.4 µM. Also, the TGI in the assay on NCI-H460 lung came to 45.1 µM; in the assay on OVCAR-5 ovarian, 37.4 µM; in the assay on U251 CNS, 29.4 µM; in the assay with SF-539 CNS, 31.9 µM; in the assay on SNB-75 CNS it was 35.9 µM; with NCI/ADR-RES ovarian, 46.8 µM. For the same molecule, the concentration for total growth inhibition (TGI) in the assay on HOP-62 NSCLC was 33.7 µM; with BT-549 breast it was 27.5 µM; with SK-MEL-2 melanoma, 33.4 µM; in the assay on HCT-116 colon, > 100 µM.
With `CC(C)(C)c1[nH]cnc1/C=c1\[nH]c(=O)/c(=C/c2ccccc2)[nH]c1=O`, the GI50 in the assay with NCI-H460 lung was < 0.01 µM; in the assay on OVCAR-5 ovarian, 0.0335 µM; with U251 CNS, < 0.01 µM; in the assay on SF-539 CNS, < 0.01 µM; in the assay with SNB-75 CNS, < 0.01 µM; in the assay with NCI/ADR-RES ovarian it was < 0.01 µM. Also, the GI50 was < 0.01 µM in the assay with HOP-62 NSCLC, 0.0139 µM with BT-549 breast, < 0.0108 µM with SK-MEL-2 melanoma and < 0.01 µM in the assay on HCT-116 colon. Further, the TGI is 17.7 µM in the assay with NCI-H460 lung; 86.1 µM in the assay on OVCAR-5 ovarian; 43.9 µM in the assay on U251 CNS; 0.0321 µM with SF-539 CNS; 44 µM in the assay with SNB-75 CNS; > 100 µM in the assay on NCI/ADR-RES ovarian. Further, the TGI in the assay on HOP-62 NSCLC amounted to 25.8 µM; in the assay with BT-549 breast, 12.1 µM; in the assay on SK-MEL-2 melanoma it was 30.7 µM; in the assay with HCT-116 colon it was 15.4 µM.
For the molecule `O=c1c2ccccc2n2n1CC(O)C2` (configuration not stated), the TGI in the assay with NCI-H460 lung, in the assay on OVCAR-5 ovarian, with U251 CNS, with SF-539 CNS, with SNB-75 CNS and in the assay on NCI/ADR-RES ovarian was > 100 µM in each case. Also, the TGI in the assay with HOP-62 NSCLC, in the assay on BT-549 breast, with SK-MEL-2 melanoma and with HCT-116 colon was > 100 µM in each case. Besides, the GI50 with NCI/ADR-RES ovarian and in the assay with BT-549 breast was > 100 µM throughout.
Take `COc1ccc(-c2nn(-c3cccc(NC(=O)c4ccc5c(c4)OCCO5)c3)cc2-c2ccncc2)cc1Cl`: the GI50 in the assay on NCI-H460 lung is 2.67 µM; with OVCAR-5 ovarian it was 5.19 µM; with U251 CNS it was 1.18 µM; in the assay on SF-539 CNS it was 1.41 µM; in the assay on SNB-75 CNS, 0.602 µM; in the assay on NCI/ADR-RES ovarian, 1.01 µM. Also, the GI50 was 2.94 µM in the assay on HOP-62 NSCLC, 1.79 µM in the assay on BT-549 breast, 2.36 µM in the assay with SK-MEL-2 melanoma and 2.03 µM in the assay on HCT-116 colon. For the same molecule, the concentration for total growth inhibition (TGI) in the assay on NCI-H460 lung turned out to be 15.6 µM; with OVCAR-5 ovarian, 29.8 µM; with U251 CNS, 12.7 µM; with SF-539 CNS, 3.48 µM; with SNB-75 CNS it was 3.5 µM; with NCI/ADR-RES ovarian it was 4.74 µM. Besides, the TGI in the assay with HOP-62 NSCLC amounted to 20.8 µM; in the assay with BT-549 breast, 7.4 µM; in the assay with SK-MEL-2 melanoma, 7.15 µM; in the assay with HCT-116 colon it was 14.5 µM.
For the molecule `O=C(Nc1ccc(Oc2ccc3nc(NC(=O)c4ccccc4)[nH]c3c2)cc1)Nc1cc(C(F)(F)F)ccc1F`, the GI50 is 1.59 µM in the assay with NCI-H460 lung; 4.41 µM with OVCAR-5 ovarian; 1.28 µM in the assay on U251 CNS; 1.81 µM in the assay with SF-539 CNS; 1.3 µM in the assay with SNB-75 CNS; 0.771 µM in the assay on NCI/ADR-RES ovarian. Also, the GI50 was 0.871 µM in the assay with HOP-62 NSCLC, 1.19 µM in the assay on BT-549 breast, 0.832 µM in the assay with SK-MEL-2 melanoma and 1.09 µM in the assay with HCT-116 colon. The TGI is > 22.4 µM in the assay with NCI-H460 lung; > 25 µM in the assay with OVCAR-5 ovarian; 21.6 µM with U251 CNS; 18.5 µM in the assay with SF-539 CNS; 10 µM with SNB-75 CNS; 3.38 µM in the assay on NCI/ADR-RES ovarian. The TGI in the assay with HOP-62 NSCLC was 6.65 µM; with BT-549 breast, 8.57 µM; in the assay with SK-MEL-2 melanoma it was 3.63 µM; in the assay on HCT-116 colon, > 18.1 µM.
In the case of `C=CC[P+](c1ccccc1)(c1ccccc1)c1ccccc1`, the GI50 with NCI-H460 lung is 4.54 µM; in the assay on OVCAR-5 ovarian it was 13.4 µM; in the assay with U251 CNS, 3.44 µM; with SF-539 CNS it was 8.42 µM; with SNB-75 CNS, 3.58 µM; in the assay with NCI/ADR-RES ovarian, > 100 µM. Besides, the GI50 is 12.1 µM in the assay on HOP-62 NSCLC, 4.05 µM in the assay with BT-549 breast, 3.36 µM in the assay with SK-MEL-2 melanoma and 3.48 µM in the assay on HCT-116 colon. Further, the TGI is > 100 µM in the assay with NCI-H460 lung; > 100 µM in the assay with OVCAR-5 ovarian; > 100 µM with U251 CNS; > 100 µM with SF-539 CNS; 57.9 µM in the assay with SNB-75 CNS; > 100 µM in the assay with NCI/ADR-RES ovarian. In addition, the TGI was > 100 µM in the assay with HOP-62 NSCLC, 94.5 µM in the assay with BT-549 breast, 16.4 µM in the assay on SK-MEL-2 melanoma and > 100 µM with HCT-116 colon.
Regarding `Oc1c(CN2CCCC2)cc(COCc2ccc(Br)cc2)c2cccnc12`, the GI50 in the assay with NCI-H460 lung was 0.433 µM; with OVCAR-5 ovarian it was 2.87 µM; in the assay on U251 CNS it was 0.525 µM; in the assay with SF-539 CNS, 1.11 µM; with SNB-75 CNS it was 1.33 µM; with NCI/ADR-RES ovarian, 0.0707 µM. The GI50 with HOP-62 NSCLC is 0.362 µM; with BT-549 breast, 1.81 µM; in the assay on SK-MEL-2 melanoma, 1.47 µM; in the assay with HCT-116 colon, 0.365 µM. Also, the TGI with NCI-H460 lung amounted to 2.01 µM; in the assay on OVCAR-5 ovarian it was 13.6 µM; in the assay with U251 CNS, 2.78 µM; in the assay on SF-539 CNS it was 2.85 µM; with SNB-75 CNS it was 11.7 µM; in the assay on NCI/ADR-RES ovarian, 1.13 µM. Further, the TGI was found to be 2.3 µM in the assay with HOP-62 NSCLC, 6.49 µM with BT-549 breast, 3.97 µM in the assay on SK-MEL-2 melanoma and 3.56 µM in the assay with HCT-116 colon.
In the case of `O=S(=O)(O)c1ccc(-c2nnc(-c3ccccn3)nc2-c2ccc(S(=O)(=O)O)o2)o1`, the TGI in the assay with NCI-H460 lung, with OVCAR-5 ovarian, with U251 CNS, in the assay with SF-539 CNS, in the assay on SNB-75 CNS and with NCI/ADR-RES ovarian was > 100 µM throughout. For the same molecule, the TGI in the assay on HOP-62 NSCLC, in the assay with BT-549 breast, in the assay on SK-MEL-2 melanoma and in the assay with HCT-116 colon was > 100 µM throughout.

For orientation: GI50 means the concentration giving 50% growth inhibition. For orientation: TGI means the concentration giving total growth inhibition. A lower TGI goes with more potent growth arrest.
